The source of these data is US20240182869A1 (priority 2021, published 2024).

Like-named read-outs stand apart in the source and are kept apart here.

In assay [1] the test system is C. perfringens strain CP6. The assay is classed as in vivo, Ross x Ross broiler chickens. To be noted: for Adjusted FCR: adjusted for mortality.
The subject of assay [2] is C. perfringens strain CP6. It counts as in vivo, Ross x Ross broiler chickens. The note with it: T3 BMD 55 gm/metric ton in feed, C. perfringens challenge; for Adjusted FCR: adjusted for mortality.
Assay [3] relates to C. perfringens. The assay is classed as cell-based, Clostridium perfringens.
Assay [4] has as its system C. perfringens. It counts as cell-based, Clostridium perfringens. The source holds these as a separate data set.
For assay [5], the system named is C. perfringens isolates. It counts as cell-based, Clostridium perfringens.
Setting [6] is: Day 0 to 14, T3 BMD 55 gm/metric ton, C. perfringens challenge.
Setting [7] is: Day 0 to 22, T3 BMD 55 gm/metric ton, C. perfringens challenge.
[8] abbreviates: Day 0 to 28, T3 BMD 55 gm/metric ton, C. perfringens challenge.
Setting [9] is: T3 BMD 55 gm/metric ton, C. perfringens challenge, DOT 22.

Take “Bacitracin methylene disalicylate [Bacitracin Methylene Disalicylate (BMD)]”: the “Feed Intake” value in assay [1] (setting [6]) is 4.55A Kg/Cage; in assay [1] (setting [7]) it was 10.47A Kg/Cage; in assay [1] (setting [8]), 15.93A Kg/Cage; in assay [2] (Day 0 to 14), 4.87A Kg/Cage; in assay [2] (Day 0 to 22), 11.55AB Kg/Cage; in assay [2] (Day 0 to 28), 16.095BC Kg/Cage. Besides, the “Non-Adjusted FCR” value in assay [1] (setting [6]) worked out at 1.353AB; in assay [1] (setting [7]), 1.403AB; in assay [1] (setting [8]), 1.483B; in assay [2] (Day 0 to 14) it was 1.217AB; in assay [2] (Day 0 to 22), 1.662BC; in assay [2] (Day 0 to 28) it was 1.867BC. Further, the “Weight Gain” value in assay [1] (setting [6]) is on record as 0.338A kg; in assay [1] (setting [7]) it was 0.776A kg; in assay [1] (setting [8]) it was 1.154A kg; in assay [2] (Day 0 to 14) it was 0.430A ^ kg; in assay [2] (Day 0 to 22), 0.861AB kg; in assay [2] (Day 0 to 28), 1.236AB kg. Further, the “Adjusted FCR” value in assay [1] (setting [6]) is on record as 1.353AB; in assay [1] (setting [7]), 1.361AB; in assay [1] (setting [8]), 1.453A; in assay [2] (Day 0 to 14), 1.186AB; in assay [2] (Day 0 to 22), 1.470AB; in assay [2] (Day 0 to 28), 1.581A. Besides, the “Overall Mortality” value was 3.33AB Percent in assay [1] (setting [8]) and 24.00AB Percent in assay [2] (Day 0 to 28). The “Lesion Scores Dunn's All-Pairwise Comparisons Test” value is recorded as 13.83A in assay [1] (setting [9]) and 33.00AB in assay [2] (DOT 22). The “Lesion Scores Kruskal-Wallis One-Way AOV (Mean Rank)” value is given as 13.83 in assay [1] (setting [9]) and 33.00 in assay [2] (DOT 22). Further, the “Lesion Scores Mean Score (Hofacre, 1998)” value is reported as 0.33A in assay [1] (setting [9]) and 0.60AB in assay [2] (DOT 22). Further, the “FCR to DOT 28 versus challenge control (T2)” value in assay [1] (both doses (T4 & T5) and BMD (T3)) is “significantly better than the challenge control”. The figures for the “NE Percent Mortality” value in assay [2] and in assay [2] (listed as BMD) were 18.00A Percent and 18%, respectively.

With Clostridium phage vB_CpeM_ACP45, in assay [3], the “Virulence Index” value turned out to be 0.91. Also, in assay [4], the “Cocktail MOI” value is recorded as 0.01 and the “Individual MOI” value turned out to be 0.01.

For Clostridium phage vB_CpeM_AE3110, in assay [3], the “Virulence Index” value is recorded as 0.24. Also, in assay [4], the “Cocktail MOI” value is reported as 0.01 and the “Individual MOI” value came out at 0.1.

Turning to Clostridium phage vB_CpeM_SMS460, the “Virulence Index” value in assay [3] was 0.95. In assay [4], the “Cocktail MOI” value is listed as 0.001 and the “Individual MOI” value came to 0.01. In addition, the “Clostridium perfringens strains capable of being infected or lysed (host range, FIG. 2)” value in assay [5] is “ATCC 13124, Q143.CN7, JBCNJ055, Q100,CN13, Q159.4C, JBFR063, M030.1C, CP_UoA_CA_39, CP_UoA_CA_24, JBCNI056, JBCNC058, JBCNC056 and CP_UoA_CA_132”.

As to Clostridium phage vB_CpeP_ACP5, in assay [3], the “Virulence Index” value turned out to be 0.86. Besides, in assay [4], the “Cocktail MOI” value is given as 0.001 and the “Individual MOI” value is given as 0.01.

For Clostridium phage vB_CpeP_ACP8, the “Virulence Index” value in assay [3] came to 0.92. In assay [4], the “Cocktail MOI” value is listed as 0.001 and the “Individual MOI” value is listed as 0.01.

As for Clostridium phage vB_CpeP_ACP10, the “Virulence Index” value in assay [3] came to 0.19. Moreover, in assay [4], the “Cocktail MOI” value was 0.001 and the “Individual MOI” value is listed as 0.1.

On to Clostridium phage vB_CpeP_ACP11, for which the “Virulence Index” value in assay [3] turned out to be 0.03. For the same substance, in assay [4], the “Cocktail MOI” value is 0.01 and the “Individual MOI” value came out at 0.1.

In the case of Clostridium phage vB_CpeP_ACP22, the “Virulence Index” value in assay [3] came to 0.14. Also, in assay [4], the “Cocktail MOI” value was 0.01 and the “Individual MOI” value amounted to 0.1.

Turning to Clostridium phage vB_CpeP_MN6171, the “Virulence Index” value in assay [3] was 0.19. Also, in assay [4], the “Cocktail MOI” value stood at 0.01 and the “Individual MOI” value is reported as 0.01.

On to Clostridium phage vB_CpeP_VLR28, for which, in assay [3], the “Virulence Index” value came to 0.18. Moreover, in assay [4], the “Cocktail MOI” value was found to be 0.001 and the “Individual MOI” value stood at 0.01.

On to Clostridium phage vB_CpeS_RO96, for which the “Virulence Index” value in assay [3] was 0.67. Also, in assay [4], the “Cocktail MOI” value worked out at 0.01 and the “Individual MOI” value is given as 0.01.
